Experiments:
H1975 = assay: Effect on cell apoptosis (Western Blot, PARP and Caspase 3 cleavage), H1975; type: cell-based, human; conditions: H1975 (EGFR L858R/T790M), 24 hours
Description: (§1) In order to confirm whether the death of cells is through apoptosis or necrosis after administration of drugs, non-small cell lung cancer cell A549 (expressing wild-type EGFR gene), non-small cell lung cancer cell line H1975 (expressing EGFR L858R/T790M double mutant gene), non-small cell lung cancer cell line H3255 (expressing EGFR L858R mutant gene), non-small cell lung cancer cell line H3122 (expressing ALK gene) cell line, and non-small cell lung cancer cell line PC-9 (expressing EGFR delE746_A750 mutant gene) were tested for effect of Compound 1 on cleavage of poly ADP-ribose polymerase PARP which is a DNA repair enzyme and Caspase 3, which were closely related to cell apoptosis. […] Western Blot was used to detect the effect of various concentrations of drugs at various time points on cleavage of poly ADP-ribose polymerase PARP which is a DNA repair enzyme and Caspase 3.

ALK protein (H3122) = assay: Effect on signaling pathway in cells, H3122; type: cell-based, human; conditions: H3122 (expressing ALK gene), 4 h
Experimental: In non-small cell lung cancer cell line H3122 (expressing ALK gene), the effect of Compound 1 on other protein kinases that are closely related to ALK such as Stat3, Ras, MEK1/2, ErK, mTOR, PI3K, JAK3, AKT in this cell was assessed by assaying a number of cellular biochemical and functional endpoints. […] The effect of Compound 1 on phosphorylation of Stat3 Y705, Ras, MEK1/2S217/221, Erk T202/204, mTOR, PI3K, JAK3Tyr980/981, AKT T308, AKT 5473 in this cell line was assayed (FIG. 1e).
In non-small cell lung cancer cell line H3122 (expressing ALK gene), the effect of Compound 10 on ALK and other protein kinases that are closely related to ALK such as Stat3, Ras, MEK1/2, ErK, mTOR, PI3K, JAK3, AKT in this cell was assessed by assaying a number of cellular biochemical and functional endpoints. The lung cancer cell H3122 (expressing ALK gene) was treated with different concentrations of 0 μM, 0.03 μM, 0.1 μM, 0.3 μM, 1 μM, 3 μM of Compound 10 (in DMSO), 1 μM of AZD9291 (in DMSO) (purchased from Shanghai Haoyuan Chemexpress Co., Ltd.), 1 μM of LDK378 (in DMSO) (purchased from Shanghai Haoyuan Chemexpress Co., Ltd.), and blank control (DMSO) for 4 h, and the samples were collected. The effect of Compound 10 on phosphorylation of ALK Y1604, Stat3 Y705, Ras, MEK1/25217/221, Erk T202/204, mTOR, PI3K, JAK3 Tyr980/981, AKT T308, AKT S473 in this cell line was assayed (FIG. 1f).

H3122 = assay: Effect on cell apoptosis (Western Blot, PARP and Caspase 3 cleavage), H3122; type: cell-based, human; conditions: H3122 (ALK gene), 24 hours
Description: as §1

[1] = tested on: non-small cell lung cancer cell H3122 subcutaneous tumors; assay: Mouse tumor model of non-small cell lung cancer cell H3122; type: in vivo; conditions: for tumor inhibition rate: Bal b/c mice
Experimental: Similarly, 72 Bal b/c female mice, 4-6 weeks old, were purchased from Shanghai SLAC Laboratory Animal Co., Ltd., and maintained in an SPF laboratory. Drinking water and bedding were both sterilized by autoclaving. All operations involving the mice were performed under aseptic conditions. At day 0, 5×10^6 non-small cell lung cancer cells H3122 (purchased from ATCC) were injected subcutaneously into the left flank of all mice. At day 15, all mice were divided into eight groups (9 mice per group), and the first group of mice were orally administered with methyl cellulose (HKI) solvent, the second group of mice were orally administered with Compound 1 at a dose of 5 mg/kg mouse weight, the third group of mice were orally administered with Compound 1 at a dose of 10 mg/kg mouse weight, the fourth group of mice were orally administered with Compound 1 at a dose of 20 mg/kg mouse weight, the fifth group of mice were orally administered with methyl cellulose (HKI) solvent, the sixth group of mice were orally administered with Compound 10 at a dose of 10 mg/kg mouse weight, the seventh group of mice were orally administered with Compound 10 at a dose of 20 mg/kg mouse weight, and the eighth group of mice were orally administered with Compound 10 at a dose of 40 mg/kg mouse weight daily. Starting from the administration, the length/width of the subcutaneous tumor was measured daily with a vernier caliper, and the weight of the mice was recorded daily to observe the effect of Compounds 1 and 10 on the body weight of the mice. For the first to fourth groups, the mice were sacrificed at day 36 and the subcutaneous tumors were collected. The tumors were weighed, and then the tumor tissues were used to prepare protein lysates for use. The growth trend of the subcutaneous tumor within 16-36 days was plotted, wherein the tumor volume was calculated as length×width×width/2 mm^3. For the fifth to eighth groups, the mice were sacrificed at day 43 and the subcutaneous tumors were collected. The tumors were weighed, and then the tumor tissues were used to prepare protein lysates for use. The growth trend of the subcutaneous tumor within 16-43 days was plotted, wherein the tumor volume was calculated as length×width×width/2 mm^3.

[2] = tested on: EGFR protein (EGFR L858R/T790M, H1975); assay: Effect on signaling pathway in cells, H1975; type: cell-based, human; conditions: 4 h
Description: In four cell lines (all purchased from ATCC) including non-small cell lung cancer cell line A549 (expressing wild-type EGFR gene), non-small cell lung cancer cell line H1975 (expressing EGFR L858R/T790M double mutant gene), non-small cell lung cancer cell line H3255 (expressing EGFR L858R mutant gene) and non-small cell lung cancer cell line PC-9 (expressing EGFR delE746_A750 mutant gene), the effect of Compound 1 on EGFR or other protein kinases related to signaling pathways of EGFR such as Stat3, AKT, ErK, eIF4E, 4EBP1, P70S6K was assessed by assaying a number of cellular biochemical and functional endpoints. […] The effect of Compound 1 on phosphorylation of Stat3Y705, AKT T308, AKT 5473, Erk T202/204, EGFR Y1068, P70S6K Thr389, eIF4E Ser209, Erk T202/204, 4EBP1 (Thr37/46) in these cell lines was assayed (FIGS. 1a to 1d).
In non-small cell lung cancer cell line H1975 (expressing EGFR L858R/T790M double mutant gene), the effect of Compound 10 on EGFR and other protein kinases that are closely related to the signaling pathways of EGFR such as Stat3, AKT, ErK, eIF4E, 4EBP1, P70S6K in this cell was assessed by assaying a number of cellular biochemical and functional endpoints. […] The effect of Compound 10 on phosphorylation of Stat3Y705, AKT T308, AKT S473, Erk T202/204, EGFR Y1068, P70S6K Thr389, eIF4E Ser209, Erk T202/204, 4EBP1 (Thr37/46) in this cell line was assayed (FIG. 1g).

SMILES	concentration at which cleavage of PARP and Caspase 3 could be observed (H1975) [µM]	concentration able to significantly inhibit the phosphorylation of ALK protein (ALK protein (H3122)) [µM]	concentration that almost completely inhibited the phosphorylation of ALK protein (ALK protein (H3122)) [µM]	effects on other protein kinases closely related to ALK protein (Stat3, Ras, MEK1/2, ErK, JAK3, AKT) (ALK protein (H3122))	concentration at which evident cleavage of PARP and Caspase 3 could be observed (H3122) [µM]	tumor inhibition rate ([1]; oral daily 10 mg/kg, on the second day of administration) [%]	tumor inhibition rate ([1]; oral daily 20 mg/kg) [%]	body weight of the mice ([1]; oral daily 10 mg/kg)	concentration able to completely inhibit the phosphorylation of EGFR protein (also affects AKT and ERK phosphorylation) [2] [µM]	tumor inhibition rate ([1]; oral daily 40 mg/kg) [%]	body weight of the mice ([1]; oral daily 20 mg/kg)	body weight of the mice ([1]; oral daily 40 mg/kg)
C=CC(=O)Nc1cc(Nc2ncc(Cl)c(Nc3ccccc3S(=O)(=O)C(C)C)n2)c(OC)cc1N1CCN(CC)CC1 [Compound 1, N-(5-(5-chloro-4-(2-(isopropylsulfonyl)phenylamino)pyrimidin-2-ylamino)-2-(4-ethylpiperazin-1-yl)-4-methoxyphenyl)acrylamide]	0.3	0.1	0.3	evident effects	0.03	61.5	77.7	did not decrease	0.03	–	–	–
C=CC(=O)Nc1cc(Nc2ncc(Cl)c(Nc3ccccc3S(=O)(=O)C(C)C)n2)c(OC)cc1N1CCCN(C)CC1 [Compound 10, N-(5-(5-chloro-4-(2-(isopropylsulfonyl)phenylamino)pyrimidin-2-ylamino)-4-methoxy-2-(4-methyl-1,4-homopiperazin-1-yl)phenyl)acrylamide]	0.3	0.03	0.1	evident effects	1	–	68.3	–	0.03	78.4	did not decrease	did not decrease

Source: US10350210B2, “EGFR and ALK dual inhibitor” (PRECEDO PHARMACEUTICALS CO., LTD, priority 2015, dated 2019)
